# Measured values as given in patent US10151753B2, “Microfluidic devices for isolating particles” (The General Hospital Corporation, priority 2013, dated 2018).
# Key:
# [1] = test system: Rec-1 cells; assay: Ibrutinib-BFL fluorescence imaging of captured cells on the microfluidic device; type: cell-based; details: Rec-1 mantle cell lymphoma cells, FIG. 24
# [2] = test system: Jurkat cells; assay: as above; type: cell-based; details: FIG. 24
compound,measurement,setting,value
Cc1cc(C)n2c1C=C1C=CC(CCC(=O)NCC=CC(=O)N3CCCC(n4nc(-c5ccc(Oc6ccccc6)cc5)c5c(N)ncnc54)C3)=[N+]1[B-]2(F)F (centres unmarked) [Ibrutinib-BFL],fluorescence of cells when incubated with the imaging drug (binding),[1],exhibit fluorescence
same,fluorescence of cells when incubated with the imaging drug (binding),[2],do not exhibit fluorescent
